Reference: patent publication US20230373937A1, “INHIBITORS OF SPINSTER HOMOLOG 2 (SPNS2) FOR USE IN THERAPY” (University of Virginia Patent Foundation, priority 2020, published 2023)
Structures can show the parent of a compound that is named as a salt.

Target: T1, SPNS2 (Mus musculus, UniProt Q91VM4)
T1 construct: expressed in transfected cells; host or cells: HeLa or U937 cells
T1 sequence (Q91VM4 1-549): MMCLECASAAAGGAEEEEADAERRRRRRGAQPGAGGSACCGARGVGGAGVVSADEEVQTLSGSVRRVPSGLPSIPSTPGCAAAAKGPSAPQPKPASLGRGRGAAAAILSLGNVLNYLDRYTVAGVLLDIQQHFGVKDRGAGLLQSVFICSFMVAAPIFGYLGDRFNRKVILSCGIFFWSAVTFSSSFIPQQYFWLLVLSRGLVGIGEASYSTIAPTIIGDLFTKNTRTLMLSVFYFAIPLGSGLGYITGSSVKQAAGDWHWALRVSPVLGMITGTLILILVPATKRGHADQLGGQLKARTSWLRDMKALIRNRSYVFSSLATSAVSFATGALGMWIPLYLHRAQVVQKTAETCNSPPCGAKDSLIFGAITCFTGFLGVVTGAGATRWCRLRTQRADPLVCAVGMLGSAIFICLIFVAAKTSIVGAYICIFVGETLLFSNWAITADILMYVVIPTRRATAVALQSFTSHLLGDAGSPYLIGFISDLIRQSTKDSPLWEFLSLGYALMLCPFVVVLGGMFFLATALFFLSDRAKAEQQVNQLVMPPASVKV
Assay: S1P transporter assay: S1P release from whole cells expressing SPNS2
Assay type: cell-based
Conditions: HeLa or U937 cells expressing mouse SPNS2; 18 hours; S1P in media measured by LC-MS; read-out: IC50 (in vitro inhibition against SPNS2)
Experimental: Transporter assays are vectorial and therefore require measurement of the transported analyte in different compartments. The S1P transporter SPNS2 only exports S1P, which obviates measuring uptake of S1P into transporter-expressing cells. Thus, transporter activity was determined by quantifying S1P release from whole cells expressing SPNS2. SPNS2 inhibitor potency was assessed using whole cell assays. HeLa or U937 cells expressing mouse SPNS2 were used to determine inhibitor potency (IC50). Cells were plated onto 12 well plates and assayed when the cell monolayers became confluent. Cell growth media (RPMI-1640 containing 10% fetal bovine serum) was replaced with 2 mL of serum-free media (RPMI-1640) containing fatty acid free bovine serum albumin (BSA) (0.2% w/v) and supplemented with 4-deoxypyridoxine (DOP) (1 mM), NaF (2 mM), Na3VO4 (0.2 mM) to inhibit S1P degradation. Test articles (1×10-9-1×10^-4 M) were assayed in duplicate or triplicate. After 18 hours, media was collected, an internal recovery standard (0.005 mL of 5×10^-7 M deuterated (d7) S1P in methanol) was added, the BSA was precipitated with trichloroacetic acid and the bound S1P extracted with methanol. S1P and S1P-d7 were measured by liquid chromatography mass spectrometry. Inhibitor potency at the human SPNS2 ortholog was determined by an analogous assay using U-937 cells, which endogenously express human SPNS2.

| IC50 [nM] | Compound |
| --- | --- |
| > 2000 | CCCCCCCCCCc1ccc(-c2noc(CNC(=O)[C@@H](N)[C@@H](C)CC)n2)cc1 [Compound 9n, (2S,3S)-2-amino-N-((3-(4-decylphenyl)-1,2,4-oxadiazol-5-yl)methyl)-3-methylpentanamide hydrochloride] |
| > 2000 | CCCCCCCCCCc1ccc(-c2noc([C@@H]3CCC[C@@H](N)C3)n2)cc1 (racemic) [Compound 5q, (±)-trans-3-(3-(4-decylphenyl)-1,2,4-oxadiazol-5-yl)cyclohexan-1-amine hydrochloride] |
| ≤ 2000 | CCCCCCCCCCc1ccc(-c2noc(CNC(=O)[C@@H]3CCCCN3)n2)cc1 [Compound 9i, (S)—N-((3-(4-decylphenyl)-1,2,4-oxadiazol-5-yl)methyl)piperidine-2-carboxamide hydrochloride] |
| > 2000 | CCCCCCCCCCc1ccc(-c2noc(CNC(=O)[C@@H](N)Cc3ccccc3)n2)cc1 [Compound 9ac, (S)-2-amino-N-((3-(4-decylphenyl)-1,2,4-oxadiazol-5-yl)methyl)-3-phenylpropanamide hydrochloride] |
| > 2000 | CCCCCCCCCCc1ccc(-c2noc(CCCN(C)C)n2)cc1 [Compound 5l, 3-(3-(4-decylphenyl)-1,2,4-oxadiazol-5-yl)-N,N-dimethylpropan-1-amine hydrochloride] |
| > 2000 | CCCCCCCCCCc1ccc(-c2noc(CC(O)CN(C)C)n2)cc1 (centres unmarked) [Compound 7b, 1-(3-(4-decylphenyl)-1,2,4-oxadiazol-5-yl)-3-(dimethylamino)propan-2-ol hydrochloride] |
| > 2000 | CCCCCCCCCCc1ccc(-c2noc(CNC(=O)[C@@H]3C[C@@H](O)CN3)n2)cc1 [Compound 9w, (2S,4R)—N-((3-(4-decylphenyl)-1,2,4-oxadiazol-5-yl)methyl)-4-hydroxypyrrolidine-2-carboxamide hydrochloride] |
| ≤ 2000 | CCCCCCCCCCc1ccc(-c2noc(CNC(=O)CCCN)n2)cc1 [Compound 9d, 4-amino-N-((3-(4-decylphenyl)-1,2,4-oxadiazol-5-yl)methyl)butanamide hydrochloride] |
| ≤ 2000 | CCCCCCCCCCc1ccc(-c2noc(CCN)n2)cc1 [Compound 5b, 2-(3-(4-decylphenyl)-1,2,4-oxadiazol-5-yl)ethan-1-amine 2,2,2-trifluoroacetate] |
| ≤ 2000 | CCCCCCCCCCc1ccc(-c2noc(C(=O)NCCN)n2)cc1 [Compound 16a, N-(2-aminoethyl)-3-(4-decylphenyl)-1,2,4-oxadiazole-5-carboxamide hydrochloride] |
| ≤ 2000 | CCCCCCCCCCc1ccc(-c2noc(CNC(=O)[C@@H]3CCC[C@H](N)C3)n2)cc1 [Compound 9r, (1R,3S)-3-amino-N-((3-(4-decylphenyl)-1,2,4-oxadiazol-5-yl)methyl)cyclohexane-1-carboxamide hydrochloride] |
| > 2000 | CCCCCCCCCCc1ccc(-c2noc(CNC(=O)CN(C)C)n2)cc1 [Compound 9ab, N-((3-(4-decylphenyl)-1,2,4-oxadiazol-5-yl)methyl)-2-(dimethylamino)acetamide hydrochloride] |
| > 2000 | CCCCCCCCCCc1ccc(-c2noc([C@H]3CCC[C@@H](N)C3)n2)cc1 (racemic) [Compound 5p, (f)-cis-3-(3-(4-decylphenyl)-1,2,4-oxadiazol-5-yl)cyclohexan-1-amine hydrochloride] |
| > 2000 | CCCCCCCCCCc1ccc(-c2noc([C@H](N)CCCCN)n2)cc1 [Compound 19d, (R)-1-(3-(4-decylphenyl)-1,2,4-oxadiazol-5-yl)pentane-1,5-diamine dihydrochloride] |
